What was measured:
Assay type in all cases: in vivo
[1] = test system: Cabbage Looper [Trichoplusia ni (Hubner)]; assay: Cabbage looper insecticidal test; conditions: second-instar larvae, percent in solution; 3-5 days
In short: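 LC50 values, given as percent test compound in solution, were calculated from dosage-mortality curves. Squash cotyledons were immersed 2-3 s in acetone-water (50-50) dilutions starting at 0.1%, dried on a screen, then infested with five second-instar larvae. Mortality was read 3-5 days on.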

[2] = test system: Tobacco Budworm [Heliothis virescens (Fabricius)] eggs; assay: Tobacco budworm egg test; conditions: 2-day old eggs, percent in solution
In short: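 2-day eggs on paper towel, acetone dip, 0.1% and below; petri dish with larval diet, 78° F. Mortality read after control hatch and larval feeding. LC50 = % compound in solution, from dose-mortality curve.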

[3] = test system: Housefly [Musca domestica]; assay: Housefly insecticidal test; conditions: μg per 25 female flies; mortality after 48 hours
In short: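 Dry-film exposure of 25 female houseflies per cage, 48 h; LC50 as μg per 25 flies.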

[4] = test system: Aster Leafhopper [Macrosteles fascifrens (Stal)]; assay: Aster leafhopper insecticidal test; conditions: adults/nymphs, percent in solution; 48 hours
Experimental: The compounds in Tables 1 and 2 above were tested for insecticidal activity using the following testing procedures. LC50 values, based on the results of these tests and calculated according to dosage-mortality curves, are expressed in Table 3.
Aster Leafhopper [Macrosteles fascifrens (Stal)]
Oat seedlings (Avena sp) were grown in a commercial potting soil in cups. When the plants were approximately 10 cm tall they were thinned to three plants per cup and dipped for 2-3 seconds in 50-50 acetone-water solutions of the test compounds. When the plants had dried, a clear plastic tube was placed over them and the bottom end pressed into the cup. Ten aster leafhopper adults/nymphs were then placed in each tube and the tops of the tubes covered with white organdy cloth. Mortality counts were made after 48 hours. Test concentrations ranged from 0.05% down to that at which 50% mortality occurred. The LC50 values are expressed below in Table 3 under the heading "LH" in terms of the percent of the test compound in the solution.

[5] = test system: Maize weevil [Sitophilus Zeamais (Motschulsky)]; assay: Maize weevil insecticidal test; conditions: adult weevils, percent in solution; 48 hours
In short: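 LC50, in percent of compound in solution, was derived from dosage-mortality curves after 48 h at about 25 °C. Ten adult weevils per container fed on four corn seeds briefly immersed in acetone:water (50:50) solutions of up to 0.01% and dried.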

Structure (SMILES): CC(C)CC(=Nc1cc(Cl)cc(Cl)c1)OCc1cccc(Oc2ccccc2)c1 [Compound 10]
- LC50, CL [1]: 0.01%
- LC50, TBW, E (TBW-E) [2]: > 0.1%
- LC50, HF [3]: > 100 µg
- LC50, LH [4]: > 0.05%

Structure (SMILES): CC(C)C(=Nc1cc(Cl)cc(Cl)c1)OCc1cccc(Oc2ccccc2)c1 [Compound 16]
- LC50, CL [1]: 0.004%
- LC50, TBW, E (TBW-E) [2]: 0.04%
- LC50, HF [3]: 20 µg
- LC50, LH [4]: 0.0005%

Structure (SMILES): CC(C)C(=Nc1cc(Cl)c(Cl)c(Cl)c1)OCc1cccc(Oc2ccccc2)c1 [Compound 20]
- LC50, CL [1]: 0.0025%
- LC50, TBW, E (TBW-E) [2]: < 0.1%
- LC50, HF [3]: 64 µg
- LC50, LH [4]: 0.003%

Structure (SMILES): Fc1ccc(N=C(OCc2cccc(Oc3ccccc3)c2)C(Cl)=C(Cl)Cl)cc1 [Compound 49]
- LC50, CL [1]: 0.007%
- LC50, TBW, E (TBW-E) [2]: > 0.05%
- LC50, HF [3]: > 100 µg
- LC50, LH [4]: > 0.05%

Structure (SMILES): CC(C)C(=Nc1c(F)c(F)cc(F)c1F)OCc1cccc(Oc2ccccc2)c1 [Compound 57]
- LC50, CL [1]: 0.004%
- LC50, TBW, E (TBW-E) [2]: 0.1%
- LC50, HF [3]: > 100 µg
- LC50, LH [4]: 0.0005%

Structure (SMILES): CC(C)C(=Nc1cccc(C(F)(F)F)c1)OC(C)c1cccc(Oc2ccccc2)c1 (centres unmarked) [Compound 459]
- LC50, MW [5]: > 0.01%
- LC50, CL [1]: 0.008%
- LC50, TBW, E (TBW-E) [2]: 0.1%
- LC50, HF [3]: > 100 µg

Structure (SMILES): CC(C)C(=Nc1ccc(F)c(Cl)c1)OCc1cccc(Oc2c(F)c(F)c(F)c(F)c2F)c1 [Compound 460]
- LC50, MW [5]: > 0.01%
- LC50, CL [1]: 0.02%
- LC50, TBW, E (TBW-E) [2]: > 0.1%
- LC50, HF [3]: > 100 µg

Structure (SMILES): CC(C)C(=Nc1ccc(I)c(Cl)c1)OCc1cccc(Oc2ccc(Cl)cc2)n1 [Compound 471]
- LC50, MW [5]: > 0.01%
- LC50, CL [1]: 0.00018%
- LC50, TBW, E (TBW-E) [2]: 0.018%
- LC50, HF [3]: < 100 µg

Structure (SMILES): CC(C)C(=Nc1cccc(C(F)(F)F)c1)OCc1cccc(Oc2ccc(Cl)cc2)n1 [Compound 477]
- LC50, MW [5]: 0.0076%
- LC50, CL [1]: 0.0003%
- LC50, TBW, E (TBW-E) [2]: > 0.1%
- LC50, HF [3]: 20 µg

Structure (SMILES): CC(C)C(=Nc1ccc(Br)cc1)OCc1coc(Cc2ccccc2)c1 [Compound 478]
- LC50, MW [5]: > 0.01%
- LC50, CL [1]: 0.0037%
- LC50, TBW, E (TBW-E) [2]: > 0.1%
- LC50, HF [3]: 15 µg

Structure (SMILES): CC(C)C(=Nc1cccc(C(F)(F)F)c1)OCc1coc(Cc2ccccc2)c1 [Compound 482]
- LC50, MW [5]: > 0.01%
- LC50, CL [1]: 0.01%
- LC50, TBW, E (TBW-E) [2]: > 0.1%
- LC50, HF [3]: 36 µg

Structure (SMILES): CC(C)C(=Nc1ccc2c(c1)OCO2)OCc1coc(Cc2ccccc2)c1 [Compound 483]
- LC50, MW [5]: > 0.01%
- LC50, CL [1]: 0.001%
- LC50, TBW, E (TBW-E) [2]: 0.05%
- LC50, HF [3]: 6 µg

Structure (SMILES): CC(C)C(=Nc1ccc(F)cc1F)OCc1coc(Cc2ccccc2)c1 [Compound 486]
- LC50, MW [5]: > 0.01%
- LC50, CL [1]: > 0.1%
- LC50, TBW, E (TBW-E) [2]: > 0.1%
- LC50, HF [3]: 15 µg

Structure (SMILES): COCc1c(F)c(F)c(COC(=Nc2cccc(C(F)(F)F)c2)C(C)C)c(F)c1F [Compound 503]
- LC50, MW [5]: > 0.01%
- LC50, CL [1]: 0.001%
- LC50, TBW, E (TBW-E) [2]: 0.08%
- LC50, HF [3]: 21 µg

Structure (SMILES): CC(C)C(=Nc1ccc(C(F)(F)F)cc1)OCc1cccc(Oc2ccccc2)n1 [Compound 504]
- LC50, MW [5]: 0.01%
- LC50, CL [1]: 0.00025%
- LC50, TBW, E (TBW-E) [2]: 0.05%
- LC50, HF [3]: < 100 µg

Structure (SMILES): COCc1c(F)c(F)c(COC(=Nc2ccc(F)c(Cl)c2)C(C)C)c(F)c1F [Compound 505]
- LC50, MW [5]: > 0.01%
- LC50, CL [1]: 0.0024%
- LC50, TBW, E (TBW-E) [2]: 0.09%
- LC50, HF [3]: 14 µg

Structure (SMILES): CC(C)C(=Nc1cccc(C(F)(F)F)c1)OCc1cc(Oc2ccccc2)ccn1 [Compound 506]
- LC50, MW [5]: > 0.01%
- LC50, CL [1]: 0.005%
- LC50, TBW, E (TBW-E) [2]: > 0.1%
- LC50, HF [3]: 40 µg

Structure (SMILES): CC(C)C(=Nc1cccc(C(F)(F)F)c1)OCc1ccnc(Oc2ccccc2)c1 [Compound 507]
- LC50, MW [5]: > 0.01%
- LC50, CL [1]: 0.002%
- LC50, TBW, E (TBW-E) [2]: > 0.1%
- LC50, HF [3]: 93 µg

Structure (SMILES): CC(C)C(=Nc1cccc(C(F)(F)F)c1)OCc1cc(Oc2ccc(Cl)cc2)ccn1 [Compound 509]
- LC50, MW [5]: > 0.01%
- LC50, CL [1]: 0.0075%
- LC50, TBW, E (TBW-E) [2]: > 0.1%
- LC50, HF [3]: 79 µg

Structure (SMILES): CC(C)C(=Nc1ccc(F)c(Cl)c1)OCc1ccnc(Oc2ccccc2)c1 [Compound 510]
- LC50, MW [5]: > 0.01%
- LC50, CL [1]: 0.017%
- LC50, TBW, E (TBW-E) [2]: > 0.1%
- LC50, HF [3]: 54 µg

Structure (SMILES): CC(C)C(=Nc1ccc(F)c(Cl)c1)OCc1ccnc(Oc2ccc(F)cc2)c1 [Compound 511]
- LC50, MW [5]: > 0.01%
- LC50, CL [1]: 0.0012%
- LC50, TBW, E (TBW-E) [2]: > 0.1%
- LC50, HF [3]: 89 µg

Structure (SMILES): CC(C)C(=Nc1ccc(OC(F)(F)F)cc1)OCc1cccc(Oc2ccccc2)n1 [Compound 550]
- LC50, MW [5]: > 0.01%
- LC50, CL [1]: 0.00034%
- LC50, TBW, E (TBW-E) [2]: > 0.1%
- LC50, HF [3]: < 100 µg

Structure (SMILES): CC(C)C(=Nc1ccc(Br)c(F)c1)OCc1cccc(Oc2ccc(Cl)cc2)n1 [Compound 551]
- LC50, MW [5]: > 0.01%
- LC50, CL [1]: 0.00075%
- LC50, TBW, E (TBW-E) [2]: 0.035%
- LC50, HF [3]: < 100 µg

Structure (SMILES): CCc1ccc(N=C(OCc2cccc(Oc3ccc(Cl)cc3)n2)C(C)C)cc1 [Compound 552]
- LC50, MW [5]: > 0.01%
- LC50, CL [1]: 0.0016%
- LC50, TBW, E (TBW-E) [2]: > 0.1%
- LC50, HF [3]: > 100 µg

Structure (SMILES): CC(C)C(=Nc1ccc(Cl)cc1)OCc1cccc(Oc2ccccc2)n1 [Compound 553]
- LC50, MW [5]: > 0.01%
- LC50, CL [1]: < 0.1%
- LC50, TBW, E (TBW-E) [2]: 0.1%
- LC50, HF [3]: < 100 µg

Structure (SMILES): CC(C)C(=Nc1ccc(Cl)cc1)OCc1cccc(Oc2ccc(Cl)cc2)n1 [Compound 554]
- LC50, MW [5]: > 0.01%
- LC50, CL [1]: 0.00075%
- LC50, TBW, E (TBW-E) [2]: 0.04%
- LC50, HF [3]: > 100 µg

Structure (SMILES): CC(C)C(=Nc1ccc(Cl)c(C(F)(F)F)c1)OCc1cccc(Oc2ccccc2)n1 [Compound 555]
- LC50, MW [5]: > 0.01%
- LC50, CL [1]: 0.002%
- LC50, TBW, E (TBW-E) [2]: > 0.1%
- LC50, HF [3]: < 100 µg

Structure (SMILES): CC(C)C(=Nc1ccc2c(c1)OC(F)(F)O2)OCc1cccc(Oc2ccccc2)n1 [Compound 556]
- LC50, MW [5]: > 0.01%
- LC50, CL [1]: 0.0007%
- LC50, TBW, E (TBW-E) [2]: 0.04%
- LC50, HF [3]: < 100 µg

Structure (SMILES): CC(C)C(=Nc1cccc(Br)c1)OCc1cccc(Oc2ccc(Cl)cc2)n1 [Compound 557]
- LC50, MW [5]: > 0.01%
- LC50, CL [1]: 0.0004%
- LC50, TBW, E (TBW-E) [2]: > 0.1%
- LC50, HF [3]: < 100 µg

Structure (SMILES): CC(C)C(=Nc1ccc(F)c(Br)c1)OCc1cccc(Oc2ccccc2)n1 [Compound 558]
- LC50, MW [5]: > 0.01%
- LC50, CL [1]: 0.00045%
- LC50, TBW, E (TBW-E) [2]: > 0.1%
- LC50, HF [3]: < 100 µg

Structure (SMILES): CC(C)C(=Nc1ccc(F)c(F)c1)OCc1cccc(Oc2ccc(Cl)cc2)n1 [Compound 559]
- LC50, MW [5]: > 0.01%
- LC50, CL [1]: 0.00027%
- LC50, TBW, E (TBW-E) [2]: 0.017%
- LC50, HF [3]: < 100 µg

Structure (SMILES): C=C(C)C(=Nc1ccc(C(F)(F)F)cc1)OCc1cccc(Oc2ccc(Cl)cc2)n1 [Compound 560]
- LC50, MW [5]: > 0.01%
- LC50, CL [1]: 0.0015%
- LC50, TBW, E (TBW-E) [2]: < 0.1%
- LC50, HF [3]: < 100 µg

Source: patent publication US5070210A, “Novel ketenimines as intermediates for insecticides” (ICI Americas Inc., priority 1990, dated 1991)
